Experiments:
[1] = system: Can preQ1-II riboswitch C31U (RNA, riboswitch) UGUGGUUCGCAACCAUCCCACAUAAAAAAAUUAG; assay: ITC (VP-ITC, two interdependent non-equivalent sites model); conditions: 100 mM Na+ (NaCl), 4 mM Mg2+; 50 mM Na-HEPES pH 7.0, 25 °C; macroscopic, first binding event (KD2 10.26 µM)
[2] = system: Hin riboswitch WT (RNA, riboswitch) GUAGUUCGCAAACCUCCUACAAUAAAAAACUAG; assay: ITC (PEAQ-ITC, single-sites model); conditions: 100 mM Na+ (NaCl), 4 mM Mg2+; 50 mM Na-HEPES pH 7.0, 25 °C; apparent; average over two cooperative sites
[3] = system: Can preQ1-II riboswitch WT (RNA, riboswitch) UGUGGUUCGCAACCAUCCCACAUAAAAAAACUAG; assay: X-ray crystallography, 2.60 Å; conditions: 80 mM K+ (KCl), 12 mM Na+ (NaCl), 2 mM hexammine cobalt(III); 40 mM sodium cacodylate pH 5.5, 30% MPD, 20 °C; folded with Mg2+
[4] = system: Can preQ1-II riboswitch WT (RNA, riboswitch) UGUGGUUCGCAACCAUCCCACAUAAAAAAACUAG; assay: ITC (PEAQ-ITC, single-sites model); conditions: 100 mM Na+ (NaCl), 4 mM Mg2+; 50 mM Na-HEPES pH 7.0, 25 °C; apparent; average over two cooperative sites
[5] = system: Ngo riboswitch WT (RNA, riboswitch) CGCGGUUCGCAAACCUCCCGCGUUACCAAAACUAG; assay: ITC (PEAQ-ITC, single-sites model); conditions: 100 mM Na+ (NaCl), 4 mM Mg2+; 50 mM Na-HEPES pH 7.0, 25 °C; apparent; average over two cooperative sites
[6] = system: Can preQ1-II riboswitch C17U (RNA, riboswitch) UGUGGUUCGCAACCAUUCCACAUAAAAAAACUAG; assay: ITC (VP-ITC, two interdependent non-equivalent sites model); conditions: 100 mM Na+ (NaCl), 4 mM Mg2+; 50 mM Na-HEPES pH 7.0, 25 °C; macroscopic, second binding event (KD1 3.13 µM)

KD1 [1]: 6.64 µM | KD, app [2]: 52.9 ± 0.2 nM | binding [3]: yes | KD, app [4]: 32.0 ± 2.0 nM | KD, app [5]: 50.5 ± 1.3 nM | KD2 [6]: 1.30 µM
Compound: NCc1c[nH]c2nc(N)[nH]c(=O)c12

Source: article PMC8752633 (2022)
